Consider 14 compounds from patent US20060211739A1, “Use of selective P2X7 receptor antagonists” (priority 2005, published 2006).

The term melting point denotes the temperature of the solid-liquid transition.

SMILES strings stand for the structures. Counter-ions that a name gives are not always drawn.

`Cc1ncccc1Cn1nnnc1-c1cccc(Cl)c1Cl.Cl` yielded a melting point of 104 to 105 °C. `Cl.Clc1ccc(Cl)c(-c2nnnn2Cc2cccnc2)c1` showed a melting point of 200 to 201 °C. On to `Cc1ccncc1Cn1nnnc1-c1cccc(Cl)c1Cl` (as salt: hydrochloride) [Example 29, 3-{[5-(2,3-dichlorophenyl)-1H-tetraazol-1-yl]methyl}-4-methylpyridine], for which the melting point was in the range of 154 to 156 °C. As for `Cc1ccnc(C)c1Cn1nnnc1-c1cccc(Cl)c1Cl` (as salt: hydrochloride) [Example 30, 3-{[5-(2,3-dichlorophenyl)-1H-tetraazol-1-yl]methyl}-2,4-dimethylpyridine], the melting point lay in the range of 146 to 148 °C.

As to `Clc1cccc(-c2nnnn2Cc2cscn2)c1Cl` (as salt: hydrochloride) [Example 31, 5-(2,3-dichlorophenyl)-1-(1,3-thiazol-4-ylmethyl)-1H-tetraazole], the melting point was in the range of 153 to 154 °C. Regarding `Cc1nc(Cn2nnnc2-c2cccc(Cl)c2Cl)cs1` (as salt: hydrochloride) [Example 32, 5-(2,3-dichlorophenyl)-1-[(2-methyl-1,3-thiazol-4-yl)methyl]-1H-tetraazole], the melting point lay within 156 to 158 °C. With `CCOC(=O)c1nocc1Cn1nnnc1-c1cccc(Cl)c1Cl` (as salt: hydrochloride) [Example 34, ethyl 4-{[5-(2,3-dichlorophenyl)-1H-tetraazol-1-yl]methyl}isoxazole-3-carboxylate] the figure was 161 to 163 °C; with `Cc1[nH]cnc1Cn1nnnc1-c1cccc(Cl)c1Cl` (as salt: hydrochloride) [Example 35, 5-(2,3-dichlorophenyl)-1-[(5-methyl-1H-imidazol-4-yl)methyl]-1H-tetraazole], 151 to 153 °C. With `Cc1nc(C)c(Cn2nnnc2-c2cccc(Cl)c2Cl)s1` (as salt: hydrochloride) [Example 36, 5-(2,3-dichlorophenyl)-1-[(2,4-dimethyl-1,3-thiazol-5-yl)methyl]-1H-tetraazole] the figure was 174 to 175 °C. For the compound `Cn1cncc1Cn1nnnc1-c1cccc(Cl)c1Cl` (as salt: hydrochloride) [Example 37, 5-(2,3-dichlorophenyl)-1-[(1-methyl-1H-imidazol-5-yl)methyl]-1H-tetraazole], the melting point lay in the range of 166 to 168 °C. As for `Cc1noc(C)c1Cn1nnnc1-c1cccc(Cl)c1Cl` (as salt: hydrochloride) [Example 38, 5-(2,3-dichlorophenyl)-1-[(3,5-dimethylisoxazol-4-yl)methyl]-1H-tetraazole], the melting point was 176 to 178 °C.

`Clc1ccc(-c2nnnn2Cc2ccccc2)s1` (as salt: hydrochloride) [Example 50, 1-benzyl-5-(5-chlorothien-2-yl)-1H-tetraazole] displayed a melting point of 176 to 177 °C. In turn, `Brc1ccc(-c2nnnn2Cc2ccccc2)s1` (as salt: hydrochloride) [Example 51, 1-benzyl-5-(5-bromothien-2-yl)-1H-tetraazole] gave a melting point of 196 to 197 °C. The compound `Cc1ncccc1Cn1nnnc1-c1cc(Cl)ccc1Cl` [Example 44, 3-{[5-(2,5-dichlorophenyl)-1H-tetraazol-1-yl]methyl}-2-methylpyridine] displayed a melting point of 172 to 174 °C.
